Tests used:
[1] = biological target: HTR2A-A242S-EGFP-CT (humanized 5-hydroxytryptamine 2A receptor) (Mus musculus, UniProt P35363, A242S); test: radioligand saturation binding on cortical crude membranes
[2] = biological target: 5-hydroxytryptamine 2A receptor (HTR2A) (Mus musculus, UniProt P35363); type: binding
5-hydroxytryptamine 2A receptor (HTR2A), sequence (P35363 whole entry): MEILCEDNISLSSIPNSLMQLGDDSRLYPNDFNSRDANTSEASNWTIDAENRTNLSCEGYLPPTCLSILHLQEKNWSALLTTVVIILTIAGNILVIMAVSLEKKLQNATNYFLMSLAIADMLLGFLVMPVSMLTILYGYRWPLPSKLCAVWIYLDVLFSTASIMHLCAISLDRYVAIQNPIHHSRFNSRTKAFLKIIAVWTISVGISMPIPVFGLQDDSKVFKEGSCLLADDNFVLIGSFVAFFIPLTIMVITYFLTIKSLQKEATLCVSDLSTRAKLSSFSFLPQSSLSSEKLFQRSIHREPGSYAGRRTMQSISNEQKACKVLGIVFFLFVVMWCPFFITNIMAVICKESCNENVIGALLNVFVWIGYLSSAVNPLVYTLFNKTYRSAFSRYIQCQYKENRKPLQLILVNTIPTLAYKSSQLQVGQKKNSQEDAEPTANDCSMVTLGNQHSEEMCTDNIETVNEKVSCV

HTR2A-A242S-EGFP-CT (humanized 5-hydroxytryptamine 2A receptor), sequence (P35363 1-452 A242S, other chains not shown): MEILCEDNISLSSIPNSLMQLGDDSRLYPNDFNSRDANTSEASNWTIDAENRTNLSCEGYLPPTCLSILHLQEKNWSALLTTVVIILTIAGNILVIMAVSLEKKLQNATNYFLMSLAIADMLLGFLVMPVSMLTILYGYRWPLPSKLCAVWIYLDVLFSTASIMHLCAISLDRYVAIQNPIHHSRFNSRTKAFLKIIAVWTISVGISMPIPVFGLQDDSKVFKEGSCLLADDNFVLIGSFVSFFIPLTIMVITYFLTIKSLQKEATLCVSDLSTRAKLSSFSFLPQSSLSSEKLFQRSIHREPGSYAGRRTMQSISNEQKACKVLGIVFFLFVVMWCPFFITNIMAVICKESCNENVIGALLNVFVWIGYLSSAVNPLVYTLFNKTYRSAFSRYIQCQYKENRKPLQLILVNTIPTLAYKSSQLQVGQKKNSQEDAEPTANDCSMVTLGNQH

Kd [1]: 2.38 ± 1.48 nM | Kd [2]: 1.09 ± 0.324 nM
Compound: O=C(c1ccc(F)cc1)C1CCN(CCn2c(=O)[nH]c3ccccc3c2=O)CC1 [[3H]-ketanserin]

Reference: paper PMC10557740 (bioRxiv, 2023)
